What was measured:
[1] = tested on: primary murine CD8+ T-cells; assay: CD8+ T-cell polarization on denatured collagen type-IV (F-actin staining); assay type: cell-based; conditions: denatured collagen type-IV coated slides, 1 hour, compared to CP
Text: FIGS. 3A-3C. The RGDKGE (SEQ ID NO: 1)-containing collagen peptide P2 inhibits CD8+ T-cell polarization on denatured collagen type-IV. Briefly, microscopy slides were coated with denatured collagen type-IV to mimic the altered subendothelial basement membranes of tumor associated blood vessels. Murine primary CD8+ T-cells were isolated from mice bearing B16F10 melanomas and stimulated with either non-specific control peptide CP or the RGDKGE (SEQ ID NO: 1)-containing collagen peptide P2 and seeded on the coated slides. T-cells were allowed to incubate for 1 hour. Next slides were washed, fixed and stained with Rhodamine-labeled Phalloidin to mark F-actin. Cells were analyzed for morphological evidence of cell shape changes and polarized F-actin. FIG. 3A. Example of an enlarged image of CD8+ T-cell morphology following stimulation with either non-specific control peptide CP or the RGDKGE (SEQ ID NO: 1)-containing collagen peptide P2. FIG. 3B. Example of CD8+ T-cell morphology following stimulation with either non-specific control peptide CP or the RGDKGE (SEQ ID NO: 1)-containing collagen peptide P2. […] FIG. 3C. Quantification of the mean percentage of polarized CD8+ T-cells per 400× microscopic field. Data bars indicate mean percentage of polarized cells per 400× microscopic field from two independent experiments with 10 to 11 fields per treatment. *P<0.05. […]

Jurkat T-cells = assay: Transwell migration of Jurkat T-cells through collagen type-IV; assay type: cell-based, human; conditions: peptide, SDF-1 in lower chamber
Experimental: FIGS. 4A-4H. […] Briefly, membranes from transwell migration chambers were coated with either native collagen type-IV or denatured collagen type-IV. T-cell variants were incubated with non-specific control peptide CP, or the RGDKGE (SEQ ID NO: 1)-containing collagen peptide (P2) and seed on the coated transwell membranes. T-cells were allowed to migrate in the presence or absence of SDF-1 added to the lower chamber for approximately 1.5 hours. Cell migration was quantified by counting the number of crystal violet stained cells that had migrated through to the underside of the coated membrane. FIG. 4A. Jurkat T-cell migration through denatured collagen type-IV in the presence of non-specific control peptide CP or RGDKGE (SEQ ID NO: 1)-containing collagen peptide P2 with SDF-1. FIG. 4B. Jurkat T-cell migration through native collagen type-IV in the presence of non-specific control peptide CP or RGDKGE (SEQ ID NO: 1)-containing collagen peptide P2 with SDF-1. FIG. 4C. Cem/C1 T-cell migration through denatured collagen type-IV in the presence of non-specific control peptide CP or RGDKGE (SEQ ID NO: 1)-containing collagen peptide P2 with SDF-1. FIG. 4D. […]
FIGS. 5A-5F. […] Cell migration was quantified by counting the number of crystal violet stained cells that had migrated through to the underside of the coated membrane. […]

QGPRGDKGE (CQGPRGDKGEC; Synthetic: Synthetic collagen RGD containing peptide P-2) [Peptide P2, synthetic version of the soluble RGDKGE-containing collagen peptide]
percentage of T-cells exhibiting a migratory and polarized morphological phenotype [1]: significant decrease
Jurkat T-cell migration (Jurkat T-cells; denatured collagen type-IV): selectively inhibited
Jurkat T-cell migration (Jurkat T-cells; native collagen type-IV): neither the soluble RGDKGE (SEQ ID NO: 1) collagen peptide P2, nor the non-specific control peptide had any significant effect

— patent US20240327506A1, “METHODS AND COMPOSITION FOR THE SELECTIVE ENHANCEMENT OF ADOPTIVE CELL THERAPY” (MaineHealth, priority 2023, published 2024)
